Reference: article PMC3629230, “Permeability Enhancers Dramatically Increase Zanamivir Absolute Bioavailability in Rats: Implications for an Orally Bioavailable Influenza Treatment” (PLoS ONE, 2013)
“And” between values parts separate entries of the source, which are not always exact repeats. Equal values may be shown once. “Also recorded” adds a separate entry of the source.

Assays:
Caco-2 cell monolayers = assay: Unidirectional (A-to-B) permeability of zanamivir across Caco-2 cell monolayers with and without excipients; format: in vitro ADME; conditions: A-to-B, zanamivir 15 µg/mL
Description: Caco-2 cells were obtained from American Type Culture Collection (Rockville, MD). Stock cultures were maintained in flasks with DMEM medium supplemented with 10% FBS, 1% non-essential amino acids, 1 mmol/L sodium pyruvate, 100 IU/mL penicillin, and 100 µg/mL streptomycin in a humidified incubator (37°C, 5% CO2). Cells were harvested by trypsinization and seeded at 60,000 cells/cm^2 onto Costar Transwell® 12-well dual-chamber plates with collagen-coated, microporous polycarbonate membranes (1.13 cm^2 insert area, 0.4 µm pore size; Corning Life Sciences, Acton, MA) for permeability studies. The culture medium was changed three times per week.
Caco-2 cell monolayers that had grown for at least 20 days were subjected to batch quality control testing in which permeation rates were measured for atenolol, digoxin, estrone-3-sulfate, lucifer yellow (LY), and propranolol. In addition, the transepithelial electrical resistance (TEER) across each experimental monolayer was tested prior to an experiment.
Unidirectional (A-to-B) permeability of zanamivir was determined at 15 µg/mL in the absence and presence of varying concentrations of excipients in Caco-2 cell monolayers. The assay buffer was Hanks' balanced salt solution (HBSS) supplemented with 10 mM 4-(2-hydroxyethyl)-1-piperazineethanesulfonic acid (HEPES) and 15 mM D-glucose (HBSSg), pH 7.4. The dosing solutions on the apical side (0.5 mL) contained either zanamivir and excipients at each concentration being tested or zanamivir only (n = 4), while the receiver buffer in the bottom well (1.5 mL) was always excipient-free. The Caco-2 cell monolayers were incubated for 120 min in a humidified incubator (37°C, 5% CO2) after dosing in the apical chambers. Aliquots (200 µL each) of receiver buffer were sampled at 60 min, 90 min, and 120 min after dosing, with replacement by the same volume of blank buffer (at 60 min and 90 min). Donors were sampled at 0 and 120 min.
Experimental samples were identically treated.

[1] = Pharmacokinetics and absolute bioavailability after intraduodenal administration in rats; conditions: for Cmax / Tmax / AUC(0-t) / AUC(0-inf) / half-life / bioavailability: male, Sprague-Dawley, rat, plasma; for AUC(0-t): AUClast; for half-life: t1/2, intraduodenal; for bioavailability: other: intraduodenal, absolute, vs 1.5 mg intravenous
Description: Male Sprague-Dawley rats (Hilltop Labs, Scottdale, PA), 3 animals per treatment group, 250–350 grams in weight, were fitted with a jugular vein cannula (JVC). Animals intended for intraduodenal dosing were also fitted with one or more intraduodenal cannula (IDC) and those intended for intravenous dosing were fitted with a second JVC. Food was withheld from the animals for a minimum of twelve hours prior to test article administration and was returned approximately four hours post-dose. Water was supplied ad libitum.
Intraduodenal doses composed of 1.5 mg of zanamivir and varying amounts of an enhancer (glycerol or Capmul MCM L8) were injected directly into the duodenum via the IDC. To determine absolute bioavailability of the intraduodenal administered drug, intravenous dosing was conducted by the injection of 1.5 mg of zanamivir in 200 µL of PBS through a JVC. For some experiments, the absorption enhancer was administered intraduodenally 2 hr prior to administering 1.5 mg of zanamivir in PBS through a second IDC. Each intraduodenal dose was followed with the introduction of a small air bubble (∼10 µL) in the cannula followed by a flush of 125 µL of PBS to ensure the dose was given in full. The volume of PBS used for cannula flush was consistent across the treatment groups. The cannula was tied to prevent the PBS remaining in the cannula from entering the duodenum.
Blood samples collected via the JVC, approximately 400 µL each, were obtained at 2 min, 5 min, 15 min, 30 min, 60 min, 90 min, and 120 min, with sodium heparin used as an anti-coagulant. Each sample was placed into a chilled tube containing the anticoagulant and kept on ice until centrifugation at 4°C, 3,000× g, for 5 min. The plasma supernatants were stored at −70°C until LC-MS analysis.
Dosing solution samples were assayed by liquid chromatography-mass spectrometry (LC-MS/MS) using electrospray ionization. The chromatographic system consisted of Perkin Elmer series 200 micropumps and autosampler equipped with a Waters Atlantic® HILIC Silica […], 2.1×50 mm column. The mass spectrometer was a PE Sciex API 4000 with electrospray interface in multiple reaction monitoring mode. […] Stock solutions (1 mg/mL zanamivir) were prepared in water. Standards (eight concentrations) were prepared in the appropriate matched matrix (HBSSg or Sprague-Dawley rat plasma containing sodium heparin) and diluted 50-fold with methanol. Experimental samples were identically treated.

[2] = cited from earlier work
[3] = intraduodenal, 1.5 mg/animal in PBS, Capmul MCM L8 given 2 hr prior
[4] = intraduodenal, 1.5 mg/animal in PBS, glycerol given 2 hr prior
[5] = intraduodenal, 1.5 mg/animal, 50 µL vehicle Capmul MCM L8
[6] = intraduodenal, 1.5 mg/animal, 50 µL vehicle PBS
[7] = intraduodenal, 1.5 mg/animal, 50 µL vehicle glycerol
[8] = 0.75 mg, Figure 5 experiment, intraduodenal, 0.75 mg zanamivir, 50 µL Capmul MCM L8
[9] = 1.5 mg, intraduodenal, 1.5 mg/animal in PBS, Capmul MCM L8 given 2 hr prior
[10] = 1.5 mg, intraduodenal, 1.5 mg/animal in PBS, glycerol given 2 hr prior
[11] = 1.5 mg, intraduodenal, 1.5 mg/animal, 50 µL vehicle Capmul MCM L8
[12] = 1.5 mg, intraduodenal, 1.5 mg/animal, 50 µL vehicle PBS
[13] = 1.5 mg, intraduodenal, 1.5 mg/animal, 50 µL vehicle glycerol
[14] = 1.5 mg, Figure 5 experiment, intraduodenal, 1.5 mg zanamivir, 50 µL Capmul MCM L8
[15] = 3 mg, Figure 5 experiment, intraduodenal, 3.0 mg zanamivir, 50 µL Capmul MCM L8

## CC(=O)N[C@H]1[C@H]([C@H](O)[C@H](O)CO)OC(C(=O)O)=C[C@@H]1N=C(N)N [Zanamivir, zanamivir]
Caco-2 cell monolayers; 0.25% Capmul MCM L8, pH 7.4
  Increase in apparent permeability coefficient (Papp) compared to no-enhancer control: > 5 fold and 5.2 fold
Caco-2 cell monolayers; 5% glycerol, pH 7.4
  Increase in apparent permeability coefficient (Papp) compared to no-enhancer control: > 5 fold and 5.6 fold
[1]; both enhancers (glycerol, Capmul MCM L8) given 2 hr prior to zanamivir
  Absolute bioavailability relative to negative control: equivalent to that of the negative control
[1]; enhancer (glycerol or Capmul MCM L8) given intraduodenally 2 hr prior to 1.5 mg zanamivir in PBS
  Absorption enhancement: No absorption enhancement; also recorded: no enhanced absorption
[1]; intraduodenal, 1.5 mg zanamivir in 50 µL glycerol
  Increase of absolute bioavailability compared to PBS: 4.7 fold
[1]; [3]
  Dose-normalized AUClast: 12.7 kg·ng·h/mL/mg
  Dose-normalized AUC∞: 13 kg·ng·h/mL/mg
[1]; [4]
  Dose-normalized AUClast: 21.1 kg·ng·h/mL/mg
  Dose-normalized AUC∞: 29.1 kg·ng·h/mL/mg
[1]; [5]
  Dose-normalized AUClast: 715 kg·ng·h/mL/mg
  Dose-normalized AUC∞: 753 kg·ng·h/mL/mg
[1]; [6]
  Dose-normalized AUClast: 30.6 kg·ng·h/mL/mg
  Dose-normalized AUC∞: 46.6 kg·ng·h/mL/mg
[1]; [7]
  Dose-normalized AUClast: 145 kg·ng·h/mL/mg
  Dose-normalized AUC∞: 153 kg·ng·h/mL/mg
[1]; [8]
  Cmax: 1430 ng/mL
  Tmax: 4.8 min
[1]; [9]
  AUC(0-t): 66.1 ng·h/mL
  AUC(0-inf): 69.8 ng·h/mL
  Cmax: 48.6 ng/mL
  Tmax: 60 min
  bioavailability: 0.66%
[1]; [10]
  AUC(0-t): 112 ng·h/mL
  AUC(0-inf): 156 ng·h/mL
  Cmax: 77.4 ng/mL
  Tmax: 34.8 min
  bioavailability: 1.1%
[1]; [11]
  AUC(0-t): 3800 ng·h/mL
  AUC(0-inf): 4000 ng·h/mL
  Cmax: 7230 ng/mL
  Tmax: 4.8 min
  bioavailability: 37.7%
[1]; [12]
  AUC(0-t): 162 ng·h/mL
  AUC(0-inf): 244 ng·h/mL
  Cmax: 134 ng/mL
  Tmax: 30 min
  bioavailability: 1.59%
[1]; [13]
  AUC(0-t): 754 ng·h/mL
  AUC(0-inf): 781 ng·h/mL
  Cmax: 948 ng/mL
  Tmax: 30 min
  bioavailability: 7.53%
[1]; 1.5 mg, Figure 4 experiment, intraduodenal, 1.5 mg zanamivir, 25 µL Capmul MCM L8
  Cmax: 1650 ng/mL
[1]; 1.5 mg, Figure 4 experiment, intraduodenal, 1.5 mg zanamivir, 50 µL Capmul MCM L8
  Cmax: 2120 ng/mL
[1]; 1.5 mg, Figure 4 experiment, intraduodenal, 1.5 mg zanamivir, 75 µL Capmul MCM L8
  Cmax: 2570 ng/mL
[1]; [14]
  Cmax: 3920 ng/mL
  Tmax: 4.8 min
[1]; 1.5 mg, 1.5 mg/animal in PBS, Capmul MCM L8 given 2 hr prior
  half-life: 51.6 min
[1]; 1.5 mg, 1.5 mg/animal in PBS, glycerol given 2 hr prior
  half-life: 74.4 min
[1]; 1.5 mg, 1.5 mg/animal, 50 µL vehicle Capmul MCM L8
  half-life: 29.4 min
[1]; 1.5 mg, 1.5 mg/animal, 50 µL vehicle PBS
  half-life: 49.8 min
[1]; 1.5 mg, 1.5 mg/animal, 50 µL vehicle glycerol
  half-life: 17.4 min
[1]; 1.5 mg, intraduodenal, 1.5 mg zanamivir mixed with Capmul MCM L8
  Tmax: 5 min
[1]; 1.5 mg/animal, intraduodenal, 50 µL vehicle Capmul MCM L8
  Cmax: > 7200 ng/mL
[1]; [15]
  Cmax: 7000 ng/mL
  Tmax: 8.4 min
[2]
  Oral bioavailability: under 2%
